Experimental data as given in the supplement of paper PMC6045584.
± gives the standard deviation of the averaged measurements.

Experiments:
PACLITAXEL [1] = compound: T1, CC(=O)O[C@H]1C(=O)[C@@]2(C)[C@H]([C@H](OC(=O)c3ccccc3)[C@]3(O)C[C@H](OC(=O)[C@H](O)[C@@H](NC(=O)c4ccccc4)c4ccccc4)C(C)=C1C3(C)C)[C@]1(OC(C)=O)CO[C@@H]1C[C@@H]2O [PACLITAXEL]; experiment: surviving fraction relative to DMSO-only wells; higher = less growth inhibition; settings: exposure time: 5 days
How it was run: (§1)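 Log-phase tumour cells were seeded at 250–500 per well in 384-well plates and, from 24 hours after seeding, exposed continuously for five days to inhibitors at 0.5, 1, 5, 10, 50, 100, 500 and 1000 nM. Surviving fraction is CellTiter-Glo luminescence normalised to the median of DMSO-only wells. Luminescence was measured after 10 minutes at room temperature, and only lines screened three times with replicate Pearson r >0.7 and median Z' >0.3 were kept.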

CARBOPLATIN [2] = compound: T2, O=C(O)C1(C(=O)O)CCC1.[NH2-].[NH2-].[Pt+2] [CARBOPLATIN]; experiment: as above; settings: exposure time: 5 days
How it was run: as §1

[3] = compound: CC(=O)c1c(C)c2cnc(Nc3ccc(N4CCNCC4)cn3)nc2n(C2CCCC2)c1=O; experiment: as above; settings: exposure time: 5 days
How it was run: as §1

CELECOXIB [4] = compound: T3, Cc1ccc(-c2cc(C(F)(F)F)nn2-c2ccc(S(N)(=O)=O)cc2)cc1 [CELECOXIB]; experiment: as above; settings: exposure time: 5 days
How it was run: as §1

OSI-906 [5] = compound: T4, C[C@]1(O)C[C@@H](c2nc(-c3ccc4ccc(-c5ccccc5)nc4c3)c3c(N)nccn32)C1 [OSI-906]; experiment: as above; settings: exposure time: 5 days
How it was run: as §1

[6] = compound: CC(=O)NCC(=O)N1[C@@H]2CC[C@H]1c1ccc(Nc3ncc(C(F)(F)F)c(NC4CCC4)n3)cc12; experiment: as above; settings: exposure time: 5 days
How it was run: as §1

YM155 [7] = compound: T5, COCC[n+]1c2c(n(Cc3cnccn3)c1C)C(=O)c1ccccc1C2=O [YM155]; experiment: as above; settings: exposure time: 5 days
How it was run: as §1

GEFITINIB [8] = compound: T6, COc1cc2ncnc(Nc3ccc(F)c(Cl)c3)c2cc1OCCCN1CCOCC1 [GEFITINIB]; experiment: as above; settings: exposure time: 5 days
How it was run: as §1

CAMPTOTHECIN [9] = compound: T7, CC[C@@]1(O)C(=O)OCc2c1cc1n(c2=O)Cc2cc3ccccc3nc2-1 [CAMPTOTHECIN]; experiment: as above; settings: exposure time: 5 days
How it was run: as §1

PACLITAXEL [10] = compound: T1, PACLITAXEL; experiment: area under dose-response curve of surviving fraction (unscaled, Aref=0) (surviving fraction x log10(nM)); higher = more resistant; settings: exposure time: 5 days; dose range 0.5-1000 nM
How it was run: (§2)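 Tumour cell lines in 384-well plates were exposed to eight inhibitor concentrations, from 0.5 to 1000 nM, for five days, and viability was read by CellTiter-Glo luminescence in three screens per line. Signals were normalised to DMSO-only wells, and 3-parameter logistic regression in the drc R package fitted dose-response survival curves to the surviving fractions. Area under the curve is given as the unscaled activity area. That area is taken over log10 dose with Aref = 0.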

CARBOPLATIN [11] = compound: T2, CARBOPLATIN; experiment: as above; settings: exposure time: 5 days; dose range 0.5-1000 nM
How it was run: as §2

[12] = compound: CC(=O)c1c(C)c2cnc(Nc3ccc(N4CCNCC4)cn3)nc2n(C2CCCC2)c1=O; experiment: as above; settings: exposure time: 5 days; dose range 0.5-1000 nM
How it was run: as §2

CELECOXIB [13] = compound: T3, CELECOXIB; experiment: as above; settings: exposure time: 5 days; dose range 0.5-1000 nM
How it was run: as §2

OSI-906 [14] = compound: T4, OSI-906; experiment: as above; settings: exposure time: 5 days; dose range 0.5-1000 nM
How it was run: as §2

[15] = compound: CC(=O)NCC(=O)N1[C@@H]2CC[C@H]1c1ccc(Nc3ncc(C(F)(F)F)c(NC4CCC4)n3)cc12; experiment: as above; settings: exposure time: 5 days; dose range 0.5-1000 nM
How it was run: as §2

YM155 [16] = compound: T5, YM155; experiment: as above; settings: exposure time: 5 days; dose range 0.5-1000 nM
How it was run: as §2

GEFITINIB [17] = compound: T6, GEFITINIB; experiment: as above; settings: exposure time: 5 days; dose range 0.5-1000 nM
How it was run: as §2

CAMPTOTHECIN [18] = compound: T7, CAMPTOTHECIN; experiment: as above; settings: exposure time: 5 days; dose range 0.5-1000 nM
How it was run: as §2

Which results are given for MHM BONE?
surviving fraction (PACLITAXEL [1]; 0.5 nM): 0.9897 ± 0.0049; surviving fraction (PACLITAXEL [1]; 1 nM): 0.992 ± 0.053; surviving fraction (PACLITAXEL [1]; 5 nM): 0.535 ± 0.021; surviving fraction (PACLITAXEL [1]; 10 nM): 0.339 ± 0.022; surviving fraction (PACLITAXEL [1]; 50 nM): 0.243 ± 0.0095; surviving fraction (PACLITAXEL [1]; 100 nM): 0.216 ± 0.011; surviving fraction (PACLITAXEL [1]; 500 nM): 0.187 ± 0.0059; surviving fraction (PACLITAXEL [1]; 1000 nM): 0.177 ± 0.01; surviving fraction (CARBOPLATIN [2]; 0.5 nM): 1.01 ± 0.027; surviving fraction (CARBOPLATIN [2]; 1 nM): 1.02 ± 0.025; surviving fraction (CARBOPLATIN [2]; 5 nM): 1.08 ± 0.044; surviving fraction (CARBOPLATIN [2]; 10 nM): 1.06 ± 0.058; surviving fraction (CARBOPLATIN [2]; 50 nM): 1.09 ± 0.014; surviving fraction (CARBOPLATIN [2]; 100 nM): 1.07 ± 0.028; surviving fraction (CARBOPLATIN [2]; 500 nM): 1.02 ± 0.04; surviving fraction (CARBOPLATIN [2]; 1000 nM): 1.035 ± 0.0078; surviving fraction ([3]; 0.5 nM): 1.01 ± 0.029; surviving fraction ([3]; 1 nM): 0.98 ± 0.018; surviving fraction ([3]; 5 nM): 1.037 ± 0.0076; surviving fraction ([3]; 10 nM): 1.03 ± 0.011; surviving fraction ([3]; 50 nM): 1.05 ± 0.019; surviving fraction ([3]; 100 nM): 1.03 ± 0.016; surviving fraction ([3]; 500 nM): 0.966 ± 0.015; surviving fraction ([3]; 1000 nM): 0.985 ± 0.044; surviving fraction (CELECOXIB [4]; 0.5 nM): 1.01 ± 0.038; surviving fraction (CELECOXIB [4]; 1 nM): 1.01 ± 0.027; surviving fraction (CELECOXIB [4]; 5 nM): 1.04 ± 0.03; surviving fraction (CELECOXIB [4]; 10 nM): 1.08 ± 0.057; surviving fraction (CELECOXIB [4]; 50 nM): 1.05 ± 0.041; surviving fraction (CELECOXIB [4]; 100 nM): 1.05 ± 0.025; surviving fraction (CELECOXIB [4]; 500 nM): 1.009 ± 0.009; surviving fraction (CELECOXIB [4]; 1000 nM): 1.02 ± 0.028; surviving fraction (OSI-906 [5]; 0.5 nM): 0.996 ± 0.021; surviving fraction (OSI-906 [5]; 1 nM): 0.978 ± 0.026; surviving fraction (OSI-906 [5]; 5 nM): 1.03 ± 0.025; surviving fraction (OSI-906 [5]; 10 nM): 0.999 ± 0.032; surviving fraction (OSI-906 [5]; 50 nM): 0.91 ± 0.05; surviving fraction (OSI-906 [5]; 100 nM): 0.872 ± 0.013; surviving fraction (OSI-906 [5]; 500 nM): 0.78 ± 0.022; surviving fraction (OSI-906 [5]; 1000 nM): 0.721 ± 0.018; surviving fraction ([6]; 0.5 nM): 0.986 ± 0.016; surviving fraction ([6]; 1 nM): 0.989 ± 0.031; surviving fraction ([6]; 5 nM): 0.979 ± 0.019; surviving fraction ([6]; 10 nM): 0.999 ± 0.011; surviving fraction ([6]; 50 nM): 0.986 ± 0.034; surviving fraction ([6]; 100 nM): 0.96 ± 0.041; surviving fraction ([6]; 500 nM): 0.764 ± 0.02; surviving fraction ([6]; 1000 nM): 0.629 ± 0.028; surviving fraction (YM155 [7]; 0.5 nM): 0.972 ± 0.013; surviving fraction (YM155 [7]; 1 nM): 0.998 ± 0.021; surviving fraction (YM155 [7]; 5 nM): 1.01 ± 0.011; surviving fraction (YM155 [7]; 10 nM): 1.05 ± 0.016; surviving fraction (YM155 [7]; 50 nM): 0.299 ± 0.013; surviving fraction (YM155 [7]; 100 nM): 0.202 ± 0.0085; surviving fraction (YM155 [7]; 500 nM): 0.0287 ± 0.0011; surviving fraction (YM155 [7]; 1000 nM): 0.0323 ± 0.00058; surviving fraction (GEFITINIB [8]; 0.5 nM): 1.01 ± 0.046; surviving fraction (GEFITINIB [8]; 1 nM): 1.02 ± 0.038; surviving fraction (GEFITINIB [8]; 5 nM): 1.06 ± 0.051; surviving fraction (GEFITINIB [8]; 10 nM): 1.05 ± 0.051; surviving fraction (GEFITINIB [8]; 50 nM): 1.03 ± 0.012; surviving fraction (GEFITINIB [8]; 100 nM): 1.026 ± 0.01; surviving fraction (GEFITINIB [8]; 500 nM): 0.9993 ± 0.0096; surviving fraction (GEFITINIB [8]; 1000 nM): 0.972 ± 0.013; surviving fraction (CAMPTOTHECIN [9]; 0.5 nM): 0.9523 ± 0.0021; surviving fraction (CAMPTOTHECIN [9]; 1 nM): 0.969 ± 0.031; surviving fraction (CAMPTOTHECIN [9]; 5 nM): 0.94 ± 0.026; surviving fraction (CAMPTOTHECIN [9]; 10 nM): 0.927 ± 0.025; surviving fraction (CAMPTOTHECIN [9]; 50 nM): 0.462 ± 0.022; surviving fraction (CAMPTOTHECIN [9]; 100 nM): 0.334 ± 0.017; surviving fraction (CAMPTOTHECIN [9]; 500 nM): 0.16 ± 0.016; surviving fraction (CAMPTOTHECIN [9]; 1000 nM): 0.121 ± 0.0075; area under dose-response curve (PACLITAXEL [10]): 1.43; area under dose-response curve (CARBOPLATIN [11]): 3.46; area under dose-response curve [12]: 3.35; area under dose-response curve (CELECOXIB [13]): 3.42; area under dose-response curve (OSI-906 [14]): 3.03; area under dose-response curve [15]: 3.12; area under dose-response curve (YM155 [16]): 1.94; area under dose-response curve (GEFITINIB [17]): 3.37; area under dose-response curve (CAMPTOTHECIN [18]): 2.08
